Where two headings read alike, the source gives them in different places.
What was measured:
[1] = after last heroin use; cited from earlier work
[2] = tested on: antibodies of Example 3 (antibody of the invention against 6-acetylmorphine); assay type: binding; details: 6-AM Conc. 10 ng/mL
Method: Cross reactivity to heroin metabolites and other common structurally related opiates may be evaluated using the antibodies described herein. Immunoassays are constructed using the antibodies of Example 3, configured to operate in a competitive mode immunoassay format, in which the analogue compounds of the invention are compared with other related compounds for cross reaction against 6-acetylmorphine. […] Aliquots of labeled 6-acetylmorphine at 10 ng/mL are incubated in the presence of competing compound with the antibody of the invention, and the level of interaction of the competitor compound determined as a reduction in measured signal compared with the situation where only 6-acetylmorphine is present.
Cross reactivity to heroin metabolites and other common structurally related opiates were evaluated using the antibodies as described with reference to Example 3. […] Aliquots of labeled 6-acetylmorphine at 10 ng/mL were incubated in the presence of competing compound with the antibody of the invention, and the level of interaction of the competitor compound determined as a reduction in measured signal compared with the situation where only 6-acetylmorphine was present.

[3] = tested on: selected monoclonal antibody against 6-AM; assay: competitive assay for 6-AM developed with a selected antibody; assay type: binding; details: at clinically relevant concentrations
Method: (§1) The bacterial cells from each antibody library are streaked on agar to generate colonies. The colonies, coding for monoclonal antibodies, are used to inoculate culture medium in individual wells in 96-well plates. The liquid cultures are grown overnight and used to generate frozen cell stocks. The frozen cell stocks are used to generate duplicate 96-well plate cultures, followed by expression and purification of the monoclonal antibodies in soluble form in microgram quantities.
as §1, with “were” for “are”

Row | Compound | crossreactivity [3] | other results
1 | CC(=O)O[C@H]1C=CC2[C@H]3Cc4ccc(O)c5c4[C@@]2(CCN3C)[C@H]1O5 (stereo partly drawn) [6-Acetylmorphine] |  | time 6-AM remains in the urine [1]: no more than 24 hours; Cross-Reactivity (%) ([2]; Analyte Conc. 10 ng/mL): 100%
2 | CC(=O)Oc1ccc2c3c1O[C@H]1[C@@H](OC(C)=O)C=C[C@H]4[C@@H](C2)N(C)CC[C@@]341 [Heroin, Diacetylmorphine] |  | Cross-Reactivity (%) ([2]; Analyte Conc. 750 ng/mL): 1.3%
3 | CN1CC[C@]23c4c5ccc(O[C@@H]6O[C@H](C(=O)O)[C@@H](O)[C@H](O)[C@H]6O)c4O[C@H]2[C@@H](O)C=C[C@H]3[C@H]1C5 [Morphine 3-D-glucuronide] | no crossreactivity | 
4 | CN1CC[C@]23c4c5ccc(O)c4O[C@H]2[C@@H](O[C@@H]2O[C@H](C(=O)O)[C@@H](O)[C@H](O)[C@H]2O)C=C[C@H]3[C@H]1C5 [Morphine 6-D-glucuronide] | no crossreactivity | 
5 | CN1CC[C@]23c4c5ccc(O)c4O[C@H]2[C@@H](O)C=C[C@H]3[C@H]1C5 [Morphine] | no crossreactivity | 
